Measurements reported in EPA's CvTdb concentration-time database.

Experiments:
Rat [1] = assay: concentration in lung after dosing; conditions: dosed: 2,3,7,8-Tetrachlorodibenzo-p-dioxin, oral, Female, Sprague-Dawley
Rat [2] = assay: concentration in liver after dosing; conditions: 24 h; dosed: 2,3,7,8-Tetrachlorodibenzo-p-dioxin; 0.0001 mg/kg; oral; Female; Sprague-Dawley
Rat [3] = assay: concentration in liver after dosing; conditions: dosed: 2,3,7,8-Tetrachlorodibenzo-p-dioxin, oral, Female, Sprague-Dawley
Rat [4] = assay: concentration in liver after dosing; conditions: 24 h; dosed: 2,3,7,8-Tetrachlorodibenzo-p-dioxin; 0.0001 mg/kg; oral; Female; Sprague-Dawley; remark: listed apart in the source
Rat [5] = assay: concentration in liver after dosing; conditions: 24 h; dosed: 2,3,7,8-Tetrachlorodibenzo-p-dioxin; 0.0001 mg/kg; oral; Female; Sprague-Dawley; remark: listed apart in the source
Rat [6] = assay: concentration in liver after dosing; conditions: 24 h; dosed: 2,3,7,8-Tetrachlorodibenzo-p-dioxin; 0.0001 mg/kg; oral; Female; Sprague-Dawley; remark: listed apart in the source
Rat [7] = assay: concentration in liver after dosing; conditions: 24 h; dosed: 2,3,7,8-Tetrachlorodibenzo-p-dioxin; 0.00005 mg/kg; oral; Female; Sprague-Dawley
Rat [8] = assay: concentration in plasma after dosing; conditions: dosed: 2,3,7,8-Tetrachlorodibenzo-p-dioxin, 0.0001 mg/kg, oral, Female, Sprague-Dawley
Rat [9] = assay: concentration in adipose after dosing; conditions: 1680 h; dosed: 2,3,7,8-Tetrachlorodibenzo-p-dioxin; 0.0001 mg/kg; oral; Female; Sprague-Dawley
Rat [10] = assay: concentration in adipose after dosing; conditions: 1680 h; dosed: 2,3,7,8-Tetrachlorodibenzo-p-dioxin; 0.0001 mg/kg; oral; Female; Sprague-Dawley; remark: listed apart in the source
Rat [11] = assay: concentration in adipose after dosing; conditions: 480 h; dosed: 2,3,7,8-Tetrachlorodibenzo-p-dioxin; 0.00005 mg/kg; oral; Female; Sprague-Dawley
Rat [12] = assay: concentration in adipose after dosing; conditions: 2400 h; dosed: 2,3,7,8-Tetrachlorodibenzo-p-dioxin; 0.0001 mg/kg; oral; Female; Sprague-Dawley
Rat [13] = assay: concentration in adipose after dosing; conditions: 8 h; dosed: 2,3,7,8-Tetrachlorodibenzo-p-dioxin; 0.0001 mg/kg; oral; Female; Sprague-Dawley
Rat [14] = assay: concentration in adipose after dosing; conditions: 48 h; dosed: 2,3,7,8-Tetrachlorodibenzo-p-dioxin; 0.0001 mg/kg; oral; Female; Sprague-Dawley
Rat [15] = assay: concentration in adipose after dosing; conditions: 960 h; dosed: 2,3,7,8-Tetrachlorodibenzo-p-dioxin; 0.00005 mg/kg; oral; Female; Sprague-Dawley
Rat [16] = assay: concentration in adipose after dosing; conditions: dosed: 2,3,7,8-Tetrachlorodibenzo-p-dioxin, oral, Female, Sprague-Dawley
Rat [17] = assay: concentration in adipose after dosing; conditions: 960 h; dosed: 2,3,7,8-Tetrachlorodibenzo-p-dioxin; 0.0001 mg/kg; oral; Female; Sprague-Dawley
Rat [18] = assay: concentration in adipose after dosing; conditions: 480 h; dosed: 2,3,7,8-Tetrachlorodibenzo-p-dioxin; 0.0001 mg/kg; oral; Female; Sprague-Dawley
Rat [19] = assay: concentration in adipose after dosing; conditions: 480 h; dosed: 2,3,7,8-Tetrachlorodibenzo-p-dioxin; 0.0001 mg/kg; oral; Female; Sprague-Dawley; remark: listed apart in the source
Rat [20] = assay: concentration in adipose after dosing; conditions: 1680 h; dosed: 2,3,7,8-Tetrachlorodibenzo-p-dioxin; 0.0001 mg/kg; oral; Female; Sprague-Dawley; remark: listed apart in the source
Rat [21] = assay: concentration in adipose after dosing; conditions: 960 h; dosed: 2,3,7,8-Tetrachlorodibenzo-p-dioxin; 0.0001 mg/kg; oral; Female; Sprague-Dawley; remark: listed apart in the source
Rat [22] = assay: concentration in adipose after dosing; conditions: 48 h; dosed: 2,3,7,8-Tetrachlorodibenzo-p-dioxin; 0.0001 mg/kg; oral; Female; Sprague-Dawley; remark: listed apart in the source
Rat [23] = assay: concentration in adipose after dosing; conditions: 960 h; dosed: 2,3,7,8-Tetrachlorodibenzo-p-dioxin; 0.0001 mg/kg; oral; Female; Sprague-Dawley; remark: listed apart in the source
Rat [24] = assay: concentration in adipose after dosing; conditions: 480 h; dosed: 2,3,7,8-Tetrachlorodibenzo-p-dioxin; 0.0001 mg/kg; oral; Female; Sprague-Dawley; remark: listed apart in the source
Rat [25] = assay: concentration in adipose after dosing; conditions: 48 h; dosed: 2,3,7,8-Tetrachlorodibenzo-p-dioxin; 0.0001 mg/kg; oral; Female; Sprague-Dawley; remark: listed apart in the source
Rat [26] = assay: concentration in adipose after dosing; conditions: 48 h; dosed: 2,3,7,8-Tetrachlorodibenzo-p-dioxin; 0.0001 mg/kg; oral; Female; Sprague-Dawley; remark: listed apart in the source
Rat [27] = assay: concentration in adipose (perirenal) after dosing; conditions: 960 h; dosed: 2,3,7,8-Tetrachlorodibenzo-p-dioxin; 0.0001 mg/kg; oral; Female; Sprague-Dawley
Rat [28] = assay: concentration in adipose (perirenal) after dosing; conditions: 480 h; dosed: 2,3,7,8-Tetrachlorodibenzo-p-dioxin; 0.0001 mg/kg; oral; Female; Sprague-Dawley
Rat [29] = assay: concentration in adipose (perirenal) after dosing; conditions: 480 h; dosed: 2,3,7,8-Tetrachlorodibenzo-p-dioxin; 0.0001 mg/kg; oral; Female; Sprague-Dawley; remark: listed apart in the source
Rat [30] = assay: concentration in adipose (perirenal) after dosing; conditions: 1680 h; dosed: 2,3,7,8-Tetrachlorodibenzo-p-dioxin; 0.0001 mg/kg; oral; Female; Sprague-Dawley
Rat [31] = assay: concentration in adipose (perirenal) after dosing; conditions: 48 h; dosed: 2,3,7,8-Tetrachlorodibenzo-p-dioxin; 0.00005 mg/kg; oral; Female; Sprague-Dawley
Rat [32] = assay: concentration in adipose (perirenal) after dosing; conditions: dosed: 2,3,7,8-Tetrachlorodibenzo-p-dioxin, oral, Female, Sprague-Dawley
Rat [33] = assay: concentration in adipose (perirenal) after dosing; conditions: 1680 h; dosed: 2,3,7,8-Tetrachlorodibenzo-p-dioxin; 0.0001 mg/kg; oral; Female; Sprague-Dawley; remark: listed apart in the source
Rat [34] = assay: concentration in adipose (perirenal) after dosing; conditions: 48 h; dosed: 2,3,7,8-Tetrachlorodibenzo-p-dioxin; 0.0001 mg/kg; oral; Female; Sprague-Dawley
Rat [35] = assay: concentration in adipose (perirenal) after dosing; conditions: 2400 h; dosed: 2,3,7,8-Tetrachlorodibenzo-p-dioxin; 0.0001 mg/kg; oral; Female; Sprague-Dawley
Rat [36] = assay: concentration in adipose (perirenal) after dosing; conditions: 2400 h; dosed: 2,3,7,8-Tetrachlorodibenzo-p-dioxin; 0.0001 mg/kg; oral; Female; Sprague-Dawley; remark: listed apart in the source
Rat [37] = assay: concentration in adipose (perirenal) after dosing; conditions: 960 h; dosed: 2,3,7,8-Tetrachlorodibenzo-p-dioxin; 0.0001 mg/kg; oral; Female; Sprague-Dawley; remark: listed apart in the source
Rat [38] = assay: concentration in adipose (perirenal) after dosing; conditions: 960 h; dosed: 2,3,7,8-Tetrachlorodibenzo-p-dioxin; 0.0001 mg/kg; oral; Female; Sprague-Dawley; remark: listed apart in the source
Rat [39] = assay: concentration in adipose (perirenal) after dosing; conditions: 48 h; dosed: 2,3,7,8-Tetrachlorodibenzo-p-dioxin; 0.00005 mg/kg; oral; Female; Sprague-Dawley; remark: listed apart in the source
Rat [40] = assay: concentration in adipose (perirenal) after dosing; conditions: 1680 h; dosed: 2,3,7,8-Tetrachlorodibenzo-p-dioxin; 0.0001 mg/kg; oral; Female; Sprague-Dawley; remark: listed apart in the source
Rat [41] = assay: concentration in adipose (perirenal) after dosing; conditions: 48 h; dosed: 2,3,7,8-Tetrachlorodibenzo-p-dioxin; 0.0001 mg/kg; oral; Female; Sprague-Dawley; remark: listed apart in the source
Rat [42] = assay: concentration in adipose (perirenal) after dosing; conditions: 48 h; dosed: 2,3,7,8-Tetrachlorodibenzo-p-dioxin; 0.0001 mg/kg; oral; Female; Sprague-Dawley; remark: listed apart in the source
Rat [43] = assay: concentration in adipose (perirenal) after dosing; conditions: 480 h; dosed: 2,3,7,8-Tetrachlorodibenzo-p-dioxin; 0.0001 mg/kg; oral; Female; Sprague-Dawley; remark: listed apart in the source
Rat [44] = assay: concentration in adipose (perirenal) after dosing; conditions: 2400 h; dosed: 2,3,7,8-Tetrachlorodibenzo-p-dioxin; 0.0001 mg/kg; oral; Female; Sprague-Dawley; remark: listed apart in the source
Rat [45] = assay: concentration in adipose (perirenal) after dosing; conditions: 48 h; dosed: 2,3,7,8-Tetrachlorodibenzo-p-dioxin; 0.0001 mg/kg; oral; Female; Sprague-Dawley; remark: listed apart in the source
Rat [46] = assay: concentration in adipose (perirenal) after dosing; conditions: 48 h; dosed: 2,3,7,8-Tetrachlorodibenzo-p-dioxin; 0.0001 mg/kg; oral; Female; Sprague-Dawley; remark: listed apart in the source

Clc1cc2c(cc1Cl)Oc1cc(Cl)c(Cl)cc1O2 [2,3,7,8-Tetrachlorodibenzo-p-dioxin]
Conditions	concentration in adipose, Rat [16] [pg/g]	concentration in adipose, Rat [32] [pg/g]	concentration in liver, Rat [3] [pg/g]	concentration in lung, Rat [1] [pg/g]
8 h, 0.00005 mg/kg	120	–	–	–
8 h, 0.0001 mg/kg	218	135	–	–
24 h, 0.00005 mg/kg	–	–	472	–
24 h, 0.0001 mg/kg	–	–	1630	–
48 h, 0.00005 mg/kg	–	416	–	–
48 h, 0.0001 mg/kg	303	371	–	–
480 h, 0.00005 mg/kg	110	260	271	–
480 h, 0.0001 mg/kg	428	190	307	–
960 h, 0.00005 mg/kg	93	146	205	465
960 h, 0.0001 mg/kg	171	172	–	–
1680 h, 0.0001 mg/kg	134	103	288	201
2400 h, 0.00005 mg/kg	93	–	–	–
2400 h, 0.0001 mg/kg	156	112	–	–

Conditions	concentration in adipose [pg/g]	concentration in liver [pg/g]
Rat [2]	–	1310
Rat [4]	–	1200
Rat [5]	–	1300
Rat [6]	–	1450
Rat [7]	–	515
Rat [9]	220	–
Rat [10]	279	–
Rat [11]	95	–
Rat [12]	186	–
Rat [13]	260	–
Rat [14]	397	–
Rat [15]	116	–
Rat [17]	159	–
Rat [18]	372	–
Rat [19]	422	–
Rat [20]	152	–
Rat [21]	294	–
Rat [22]	497	–
Rat [23]	294	–
Rat [24]	537	–
Rat [25]	374	–
Rat [26]	292	–
Rat [27]	305	–
Rat [28]	483	–
Rat [29]	384	–
Rat [30]	212	–
Rat [31]	236	–
Rat [33]	143	–
Rat [34]	402	–
Rat [35]	271	–
Rat [36]	218	–
Rat [37]	264	–
Rat [38]	298	–
Rat [39]	148	–
Rat [40]	213	–
Rat [41]	260	–
Rat [42]	379	–
Rat [43]	490	–
Rat [44]	106	–
Rat [45]	407	–
Rat [46]	469	–

Rat [8]
Conditions	concentration in plasma [ng/mL]
1.5 h	0.104
48 h	0.631
144 h	0.106
240 h	0.161
360 h	0.184
